Experimental data taken from ChEMBL document CHEMBL1201862, “PubChem BioAssay data set” (2004).
The source made the active and inactive calls.

Columns and labels:
[1] = target: DNA dC->dU-editing enzyme APOBEC-3G (Homo sapiens, UniProt Q9HC16); test: Dose Response confirmation of small molecule APOBEC3G DNA Deaminase Inhibitors via a fluorescence-based single-stranded DNA deaminase assay. [Related pubchem assays (depositor defined):AID493012, AID493028]; format: functional
Vero = test: cells; format: functional; conditions: Chlorocebus sabaeus
[2] = target: T1, Microphthalmia-associated transcription factor (Homo sapiens, UniProt O75030); test: TRPM1 promoter luciferase signal decrease, dose response, MITF inhibitor project, cell-based, SK-MEL-5, cherry-picked, set 3 (AID 493073); format: functional
T1 sequence (O75030 whole entry): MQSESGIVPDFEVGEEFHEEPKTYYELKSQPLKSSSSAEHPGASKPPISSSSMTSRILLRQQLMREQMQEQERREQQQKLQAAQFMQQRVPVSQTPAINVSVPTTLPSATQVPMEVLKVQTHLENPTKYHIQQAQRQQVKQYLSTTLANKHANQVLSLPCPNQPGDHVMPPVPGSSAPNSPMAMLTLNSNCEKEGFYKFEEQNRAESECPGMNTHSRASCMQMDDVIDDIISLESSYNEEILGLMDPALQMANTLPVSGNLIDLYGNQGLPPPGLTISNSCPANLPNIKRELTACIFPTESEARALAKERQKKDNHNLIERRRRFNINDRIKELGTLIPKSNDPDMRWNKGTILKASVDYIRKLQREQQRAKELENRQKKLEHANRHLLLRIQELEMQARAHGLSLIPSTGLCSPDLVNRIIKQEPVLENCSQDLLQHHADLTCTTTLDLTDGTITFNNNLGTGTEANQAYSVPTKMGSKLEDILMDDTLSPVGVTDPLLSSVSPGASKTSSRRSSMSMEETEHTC

[3] = target: T2, Sentrin-specific protease 1 (Homo sapiens, UniProt Q9P0U3); test: Dose response confirmation of small molecule inhibitors of the catalytic domain of the SUMO protease, SENP1 in a FRET assay.; format: functional; conditions: read-out: IC50_Mean
T2 sequence (Q9P0U3 whole entry): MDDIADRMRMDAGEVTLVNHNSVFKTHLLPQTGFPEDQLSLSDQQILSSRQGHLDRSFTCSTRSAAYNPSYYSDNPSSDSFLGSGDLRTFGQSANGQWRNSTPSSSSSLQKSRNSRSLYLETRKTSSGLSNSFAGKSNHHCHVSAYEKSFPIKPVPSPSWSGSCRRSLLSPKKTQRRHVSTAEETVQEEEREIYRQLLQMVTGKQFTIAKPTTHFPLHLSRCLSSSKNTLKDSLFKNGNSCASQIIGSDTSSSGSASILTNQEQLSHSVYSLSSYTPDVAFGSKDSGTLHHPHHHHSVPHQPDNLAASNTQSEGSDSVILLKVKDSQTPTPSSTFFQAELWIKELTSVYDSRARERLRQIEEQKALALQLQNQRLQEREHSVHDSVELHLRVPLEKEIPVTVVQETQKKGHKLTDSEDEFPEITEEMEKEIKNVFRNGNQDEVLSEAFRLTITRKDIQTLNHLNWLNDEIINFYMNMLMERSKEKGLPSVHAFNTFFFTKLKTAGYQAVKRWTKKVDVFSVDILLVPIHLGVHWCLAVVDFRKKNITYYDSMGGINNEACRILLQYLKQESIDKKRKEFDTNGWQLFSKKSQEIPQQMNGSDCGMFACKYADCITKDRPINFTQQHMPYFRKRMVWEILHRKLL

[4] = target: T2, Sentrin-specific protease 1; test: potency of human SENP1 inhibitors, dose response, biochemical, kinetic FRET (AID 651697); format: functional; conditions: read-out: IC50_Mean
[5] = intracellular Trypanosoma cruzi inhibitors in host cells – cell-based, plate reader, cherry-pick samples, set 3, dose response (AID 651818); format: functional;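 also: compounds incubated with infected cells for about four days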
Escherichia coli = test: microbe, parasite or virus in culture
[6] = target: T3, Carboxy-terminal domain RNA polymerase II polypeptide A small phosphatase 1 (Homo sapiens, UniProt Q9GZU7); test: inhibitors of CTDSP1, concentration-response testing, biochemical assay, absorbance-based, actives from ultra-high-throughput screening (AID 540297); format: functional
T3 sequence (Q9GZU7 whole entry): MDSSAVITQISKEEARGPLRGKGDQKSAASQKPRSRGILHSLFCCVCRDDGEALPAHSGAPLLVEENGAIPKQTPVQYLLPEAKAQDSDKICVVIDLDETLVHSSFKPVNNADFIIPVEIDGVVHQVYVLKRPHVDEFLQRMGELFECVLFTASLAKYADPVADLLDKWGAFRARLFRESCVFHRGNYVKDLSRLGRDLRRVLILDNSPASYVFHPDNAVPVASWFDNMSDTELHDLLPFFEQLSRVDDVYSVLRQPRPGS

Protein Wnt-3a = Protein Wnt-3a (Mus musculus, UniProt P27467); test: Wnt3a-driven reporter signaling inhibition, dose response, selectivity assay for Gli-SUFU antagonist project, Wnt-LIGHT cells, luminescence (AID 651570); format: functional; conditions: read-out: IC50_Mean;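 also: Wnt-LIGHT reporter cells stimulated with conditioned medium from Wnt3a-producing cells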
[7] = target: T4, Short transient receptor potential channel 4 (Mus musculus, UniProt Q9QUQ5); test: mouse TRPC4 channel activators, dose response, cell-based, HEK293 TRPC4/mu-opioid, Fluo-4 calcium (AID 434937); format: functional
T4 sequence (Q9QUQ5 whole entry): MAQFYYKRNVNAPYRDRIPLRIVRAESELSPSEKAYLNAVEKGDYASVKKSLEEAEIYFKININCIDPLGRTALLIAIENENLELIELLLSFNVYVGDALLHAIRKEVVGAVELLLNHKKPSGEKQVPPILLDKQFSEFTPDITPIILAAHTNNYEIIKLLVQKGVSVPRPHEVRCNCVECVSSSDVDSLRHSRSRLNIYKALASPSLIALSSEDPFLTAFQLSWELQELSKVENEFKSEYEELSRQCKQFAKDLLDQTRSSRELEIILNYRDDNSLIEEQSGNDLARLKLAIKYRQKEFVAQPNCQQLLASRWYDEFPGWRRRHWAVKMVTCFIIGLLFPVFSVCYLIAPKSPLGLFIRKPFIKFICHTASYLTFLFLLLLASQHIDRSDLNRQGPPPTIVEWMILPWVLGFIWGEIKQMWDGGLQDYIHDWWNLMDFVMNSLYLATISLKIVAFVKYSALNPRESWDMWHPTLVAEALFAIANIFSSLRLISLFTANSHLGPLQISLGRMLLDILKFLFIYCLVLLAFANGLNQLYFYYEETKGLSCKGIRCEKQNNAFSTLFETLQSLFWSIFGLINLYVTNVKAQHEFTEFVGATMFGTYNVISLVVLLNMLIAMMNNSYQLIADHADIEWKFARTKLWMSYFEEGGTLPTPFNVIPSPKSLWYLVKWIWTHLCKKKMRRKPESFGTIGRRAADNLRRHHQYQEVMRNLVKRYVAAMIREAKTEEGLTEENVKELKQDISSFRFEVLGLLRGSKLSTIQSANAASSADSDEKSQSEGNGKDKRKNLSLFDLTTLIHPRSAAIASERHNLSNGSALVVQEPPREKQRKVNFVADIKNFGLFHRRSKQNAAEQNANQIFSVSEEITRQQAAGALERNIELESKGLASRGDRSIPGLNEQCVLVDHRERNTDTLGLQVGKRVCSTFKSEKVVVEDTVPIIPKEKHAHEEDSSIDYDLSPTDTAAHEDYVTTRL

Streptococcus = test: Group A Streptococcus viability loss, dose response, counter-screen for streptokinase expression inhibitor project, luminescence, BacTiterGlo (AID 1915); format: functional, organism-based;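 also: potency for reduction of bacterial viability or growth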
INS1 = test: beta cell apoptosis inhibitors, cytokine rescue, dose response, luminescence, retest (AID 449756); format: functional, cell-based; conditions: Rattus norvegicus, INS1;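 also: cell death triggered by IL-1 beta plus TNF-alpha plus IFN-gamma mixture; protective hits raise ATP signal compared with cytokine alone wells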
[8] = test system: Streptococcus sp. 'group A'; test: growth inhibition of control SK(-) GAS strain, dose response, counter-screen for streptokinase expression inhibitor project, luminescence, kanamycin, BacTiterGlo, confirmation (AID 1900); format: functional, organism-based
Nonstructural protein 1 = Nonstructural protein 1 (Influenza A virus, UniProt Q194T2); format: functional, Influenza A virus (A/California/07/2009(H1N1))
cells = format: functional
[9] = Luminescence Cell-Based Dose Response HTS to Identify Inhibitors of 5'UTR Stem-Loop Driven Prion Protein mRNA Translation in H4 Neuroglioblastoma Cells. [Related pubchem assays: 1827 (Project Summary), 1813 (Primary HTS)]; format: functional
[10] = inhibitors of firefly luciferase expression or activity, dose response, H4 neuroglioma cells, luminescence (AID 1990); format: functional, cell-based
[11] = inhibitors of SNCA 5'UTR-driven reporter translation, confirmation, H4 neuroglioma cells, luminescence (AID 1988); format: functional, cell-based
[12] = AlphaScreen signal interference compounds, dose response, artefact control for ARNT-TACC3 interaction inhibitor project, biochemical, luminescence, cherry-pick (AID 651705); format: functional;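 also: AlphaScreen bead proximity signal that flags compounds interfering with the detection technology; potency reflects signal decrease which marks the compound as an assay artifact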
[13] = THP-1 cell cytotoxicity, dose response, cytotoxicity control for non-replicating M. tuberculosis project (AID 489025); format: functional
Streptokinase A = target: T5, Streptokinase A (Streptococcus pyogenes serotype M1, UniProt P10520); test: S. pyogenes streptokinase expression inhibitors, potency, dose response, plasminogen activation absorbance, OD405 (AID 1914); format: functional, Streptococcus pyogenes M1 GAS;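 also: secreted streptokinase activity via plasminogen activation per viability signal from cell pellet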
T5 sequence (P10520 whole entry): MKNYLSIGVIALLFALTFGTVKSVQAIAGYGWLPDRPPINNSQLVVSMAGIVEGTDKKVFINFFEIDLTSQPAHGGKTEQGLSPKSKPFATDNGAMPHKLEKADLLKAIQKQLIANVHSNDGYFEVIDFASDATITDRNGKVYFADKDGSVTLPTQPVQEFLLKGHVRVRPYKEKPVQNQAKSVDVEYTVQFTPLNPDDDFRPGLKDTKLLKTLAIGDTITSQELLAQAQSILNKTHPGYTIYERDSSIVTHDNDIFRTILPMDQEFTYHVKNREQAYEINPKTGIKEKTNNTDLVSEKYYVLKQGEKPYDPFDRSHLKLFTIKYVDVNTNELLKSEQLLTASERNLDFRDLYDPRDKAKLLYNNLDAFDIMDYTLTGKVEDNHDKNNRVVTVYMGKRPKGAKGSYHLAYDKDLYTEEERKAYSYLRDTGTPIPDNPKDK

[14] = cytotoxicity toward NIH3T3 fibroblasts, dose response, counter-screen, cell-based, ATP luminescence, mouse fibroblasts (AID 2010); format: functional;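 also: cells exposed to compound for about 90 hours before reading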
[15] = inhibitors of intracellular T. cruzi replication, confirmation, NIH3T3 host cells, beta-gal luminescence (AID 2044); format: functional, cell-based;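 also: intracellular parasites grown in NIH/3T3 mouse fibroblasts as host cells; luminescent beta-galactosidase reporter signal from transgenic T. cruzi replicating inside host cells; inhibitors lower the luminescence signal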

DNA dC->dU-editing enzyme APOBEC-3G, sequence (Q9HC16 whole entry): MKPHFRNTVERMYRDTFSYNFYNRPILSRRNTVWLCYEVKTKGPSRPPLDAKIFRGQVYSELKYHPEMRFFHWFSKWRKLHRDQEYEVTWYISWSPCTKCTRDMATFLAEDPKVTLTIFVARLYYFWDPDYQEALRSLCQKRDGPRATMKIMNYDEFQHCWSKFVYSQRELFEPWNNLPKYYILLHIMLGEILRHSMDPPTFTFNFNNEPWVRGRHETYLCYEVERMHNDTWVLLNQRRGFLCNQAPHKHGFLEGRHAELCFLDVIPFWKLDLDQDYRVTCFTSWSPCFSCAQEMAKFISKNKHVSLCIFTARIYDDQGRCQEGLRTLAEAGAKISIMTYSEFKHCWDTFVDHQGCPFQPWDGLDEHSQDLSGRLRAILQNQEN
Nonstructural protein 1, sequence (Q194T2 whole entry): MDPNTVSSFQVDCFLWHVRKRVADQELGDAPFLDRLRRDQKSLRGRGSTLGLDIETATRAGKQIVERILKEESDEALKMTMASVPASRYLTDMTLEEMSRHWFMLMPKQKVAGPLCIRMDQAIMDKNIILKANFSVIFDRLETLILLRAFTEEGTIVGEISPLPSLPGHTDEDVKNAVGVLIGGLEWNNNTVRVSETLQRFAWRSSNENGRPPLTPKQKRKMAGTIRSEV
Protein Wnt-3a, sequence (P27467 whole entry): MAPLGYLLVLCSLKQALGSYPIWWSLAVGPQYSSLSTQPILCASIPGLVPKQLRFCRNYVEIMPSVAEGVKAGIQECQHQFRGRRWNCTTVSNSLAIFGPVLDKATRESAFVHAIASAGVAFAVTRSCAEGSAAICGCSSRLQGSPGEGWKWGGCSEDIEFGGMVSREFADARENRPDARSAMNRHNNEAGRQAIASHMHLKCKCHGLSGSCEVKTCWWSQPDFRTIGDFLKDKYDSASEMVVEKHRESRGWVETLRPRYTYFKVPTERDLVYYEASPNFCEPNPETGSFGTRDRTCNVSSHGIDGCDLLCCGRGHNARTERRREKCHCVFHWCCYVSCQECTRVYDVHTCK

O=C1C=CC(=O)C=C1 [BENZOQUINONE]
IC50 [1]: 36.1 µM (active)

COc1ccccc1/C=C1\SC(=S)N(CCC(=O)NCCc2ccc(O)cc2)C1=O
CC50 (Vero): > 25 µM (active)

CCOC(=O)N1C(=O)[C@](CC)(c2ccccc2)N1C(=O)OCC
AC50 [2]: 10 µM (active)

Cc1sc(-c2ccccn2)nc1OC(=O)c1ccc(F)cc1F
IC50 [3]: 16.6 µM (active)
IC50 [4]: 3.57 µM (active)

C[C@H](CO)N1C[C@H](C)[C@H](CN(C)Cc2ccc(C(F)(F)F)cc2)Oc2c(NC(=O)CCCCCC(=O)Nc3ccccc3N)cccc2C1=O
AC50 [5]: 1.92 µM (active)

C[C@H](CO)N1C[C@H](C)[C@H](CN(C)Cc2ccc(C(=O)Nc3ccccc3N)cc2)Oc2ccc(N(C)C)cc2CC1=O
AC50 [5]: 2.03 µM (active)

COC(=O)c1ccc(C2CC(=O)Nc3cc(OC)c(OC)cc32)cc1 (stereo unspecified)
AC50 (Escherichia coli): 32 µM (active)

C[C@H]1CN([C@@H](C)CO)C(=O)c2cccc(NC(=O)c3ccncc3)c2O[C@H]1CN(C)C(=O)Nc1ccccc1
AC50 [5]: 2.61 µM (active)
IC50 [6]: 13.8 µM (active)

O=C(NCCc1cccc(Cl)c1)c1ccc(OC2CCN(Cc3ccccn3)CC2)cc1
IC50 (Protein Wnt-3a): 28.8 µM (inactive)
EC50 [7]: 0.944 µM (active)

O=[N+]([O-])c1ccc(O)c(/C=N/Nc2nc3ccccc3[nH]2)c1
EC50 (Streptococcus): 1.56 µM (active)
AC50 (INS1): 0.559 µM (active)
EC50 [8]: 0.716 µM (active)
AC50 (Escherichia coli): 25.6 µM (active)
IC50 (Nonstructural protein 1): 10.3 µM (active)

CC(OC(=O)c1ccc([N+](=O)[O-])s1)C(=O)NC1CCCCC1C (stereo unspecified)
AC50 [2]: 12 µM (active)
IC50 (cells): 14.1 µM (active)

O=C1C=C(c2cccc(Cl)c2O)C[C@@H](c2ccc(F)cc2)C1
IC50 [3]: 1.14 µM (active)
IC50 [4]: 2.61 µM (active)

COc1cc2cc(C(c3nnnn3C3CCCCC3)N(C)C3CCCCC3)c(O)nc2cc1OC (stereo unspecified)
EC50 [9]: > 120 µM (not active)
EC50 [10]: 15.7 µM (active)
EC50 [11]: > 120 µM (not active)

Cc1cccc(NC(=O)CSc2cccc3cccnc23)c1C
AC50 [12]: 91.7 µM (active)

CCOC(=O)c1c(NC(=O)CN2CCN(C)CC2)sc(C(=O)Nc2ccccc2)c1C
CC50 (Vero): > 25 µM (active)

COc1ccc(/C=C(/NC(=O)c2cccc([N+](=O)[O-])c2)C(=O)O)cc1
AC50 (Escherichia coli): 84.9 µM (active)

O=C1/C(=C/c2ccccn2)COc2ccccc21
CC50 [13]: 28.2 µM (active)
IC50 (cells): 20.9 µM (active)

c1ccc(CNc2nc(-c3ccccn3)nc3ccccc23)cc1
EC50 (Streptococcus): 6.86 µM (active)
AC50 (INS1): 2.62 µM (active)
EC50 (Streptokinase A): > 150 µM (not active)
AC50 [12]: 80.1 µM (active)
EC50 [8]: 2.57 µM (active)

O=C(N/N=C\c1ccc([N+](=O)[O-])o1)C1COc2ccccc2O1 (stereo unspecified)
EC50 [14]: > 60 µM (inconclusive)
CC50 [13]: 32.5 µM (active)
AC50 [2]: 7.21 µM (active)
EC50 [15]: 0.532 µM (active)
IC50 (cells): 4.2 µM (active)

COc1ccc(C2=Nn3c(nnc3-c3ccccn3)SC2)cc1
AC50 [12]: 125 µM (active)

C[C@H](CO)N1C[C@H](C)[C@H](CN(C)S(=O)(=O)c2ccccc2)Oc2ccc(NC(=O)Nc3ccc(C(F)(F)F)cc3)cc2CC1=O
AC50 [5]: 4.13 µM (active)
